The results in this text go back to ChEMBL document CHEMBL4433223, “Treatment of Prostate Cancers and Kennedy's Disease by PROTAC-Androgen Receptor Degradation” (ACS Med Chem Lett, 2019).

The term Emax denotes the maximal effect, on the per cent scale that the assay sets. For orientation: DC50 means the midpoint of the concentration-degradation curve. As usually defined, the AUC(0-t) is the area under the concentration-time curve up to a stated or last time point. Higher therefore signals more exposure. As usually defined, the Cmax is the peak of the concentration-time curve.

Data set [1] deals with T1, von Hippel-Lindau disease tumor suppressor/Androgen receptor (Homo sapiens, UniProt P10275+P40337). As to the kind of experiment: Protac activity against VHL/AR in human VCAP cells assessed as induction of AR degradation incubated for 24 hrs by ELISA relative to untreated control. It counts as cell-based.
Target sequence in this assay (P10275 whole entry, looked up): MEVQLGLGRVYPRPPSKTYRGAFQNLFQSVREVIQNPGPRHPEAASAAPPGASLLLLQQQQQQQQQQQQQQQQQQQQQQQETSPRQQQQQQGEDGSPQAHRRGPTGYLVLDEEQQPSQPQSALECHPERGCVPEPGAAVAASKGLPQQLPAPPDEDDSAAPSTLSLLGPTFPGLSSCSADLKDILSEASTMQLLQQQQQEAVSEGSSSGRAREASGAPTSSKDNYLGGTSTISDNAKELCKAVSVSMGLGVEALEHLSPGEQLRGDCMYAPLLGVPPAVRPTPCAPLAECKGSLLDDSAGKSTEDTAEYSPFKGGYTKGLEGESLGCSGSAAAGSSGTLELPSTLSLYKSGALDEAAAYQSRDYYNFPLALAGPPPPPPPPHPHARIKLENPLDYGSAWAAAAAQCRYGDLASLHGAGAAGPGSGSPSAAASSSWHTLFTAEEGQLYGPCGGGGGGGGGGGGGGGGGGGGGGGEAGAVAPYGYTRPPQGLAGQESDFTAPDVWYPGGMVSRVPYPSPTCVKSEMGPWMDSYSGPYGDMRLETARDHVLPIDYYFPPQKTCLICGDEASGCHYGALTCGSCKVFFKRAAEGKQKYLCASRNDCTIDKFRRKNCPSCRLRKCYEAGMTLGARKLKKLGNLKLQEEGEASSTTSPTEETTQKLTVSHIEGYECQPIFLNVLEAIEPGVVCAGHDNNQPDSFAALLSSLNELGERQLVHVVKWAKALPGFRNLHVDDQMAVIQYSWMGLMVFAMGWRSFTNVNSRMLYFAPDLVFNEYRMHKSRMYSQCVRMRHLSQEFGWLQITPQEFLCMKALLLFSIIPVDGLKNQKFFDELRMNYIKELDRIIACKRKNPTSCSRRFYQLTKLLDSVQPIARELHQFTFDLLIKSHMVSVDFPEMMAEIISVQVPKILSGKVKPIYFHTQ
Target sequence in this assay (P40337 whole entry, looked up): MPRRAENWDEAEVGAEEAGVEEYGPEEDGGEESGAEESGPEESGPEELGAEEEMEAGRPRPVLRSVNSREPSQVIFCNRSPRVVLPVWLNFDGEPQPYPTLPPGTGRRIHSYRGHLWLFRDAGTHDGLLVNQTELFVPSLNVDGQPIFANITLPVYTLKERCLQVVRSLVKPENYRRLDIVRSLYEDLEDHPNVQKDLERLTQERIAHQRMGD
In data set [2] the target is T1, von Hippel-Lindau disease tumor suppressor/Androgen receptor. Description: Protac activity against VHL/AR in human LNCAP cells assessed as induction of AR degradation incubated for 24 hrs by ELISA relative to untreated control. It counts as cell-based. (In general: ELISA stands for enzyme-linked immunosorbent assay.)
Target sequence in this assay (P10275 whole entry, looked up): as the sequence (P10275 whole entry, looked up) above
Target sequence in this assay (P40337 whole entry, looked up): as the sequence (P40337 whole entry, looked up) above
Data set [3] has the same target. Description: Protac activity against VHL/AR in human VCAP cells assessed as induction of AR degradation incubated for 24 hrs by ELISA. Format: cell-based.
Target sequence in this assay (P10275 whole entry): as the sequence (P10275 whole entry, looked up) above
Target sequence in this assay (P40337 whole entry): as the sequence (P40337 whole entry, looked up) above
Data set [4] in a line: AUC (0 to 24 hrs) in CD1 mouse at 10 mg/kg, sc by LC/MS/MS analysis. Format: ADME, organism-based. Further details: dose 10 mg/kg, time < 24 hr, route subcutaneous. To be noted: in vivo.
The nature of data set [5]: Cmax in CD1 mouse at 10 mg/kg, sc by LC/MS/MS analysis. Further details: dose 10 mg/kg, route subcutaneous. Format: ADME, organism-based. To be noted: in vivo.
Data set [6] concerns the target T1, von Hippel-Lindau disease tumor suppressor/Androgen receptor. As to the kind of experiment: Protac activity against VHL/AR in human LNCAP cells assessed as induction of AR degradation incubated for 24 hrs by ELISA. Format: cell-based.
Target sequence in this assay (P10275 whole entry): as the sequence (P10275 whole entry, looked up) above
Target sequence in this assay (P40337 whole entry): as the sequence (P40337 whole entry, looked up) above

With `Cc1ncsc1-c1ccc(CNC(=O)[C@@H]2C[C@@H](O)CN2C(=O)[C@@H](NC(=O)COCCCOCCCCCOc2ccc(N3C(=O)N(c4ccc(C#N)c(C(F)(F)F)c4)C(=O)C3(C)C)cc2)C(C)(C)C)cc1`, the Emax was 51 to 70% in data set [1] and greater than 71% in data set [2]. Besides, the 50% degradation concentration (DC50) in data set [3] and in data set [6] was no more than 50 nM each time. The AUC(0-t) at 24 h in data set [4] fell in the range of 15600 to 40200 ng·h/mL. In data set [5], this molecule registered a Cmax of 1150 ng/mL.

Consider `CC(C)(C)[C@H](NC(=O)COCCCCCOc1ccc(C(=O)N[C@H]2C(C)(C)[C@H](Oc3ccc(C#N)c(Cl)c3)C2(C)C)cc1)C(=O)N1C[C@H](O)C[C@H]1C(=O)NCc1ccc(-c2cncs2)cc1`, for which, in data set [2], the Emax was greater than 71%. In data set [4], the AUC(0-t) at 24 h lay within 15600 to 40200 ng·h/mL. In data set [6], the DC50 was no more than 50 nM.

For `Cc1ncsc1-c1ccc([C@H](C)NC(=O)[C@@H]2C[C@@H](O)CN2C(=O)[C@@H](NC(=O)COCCCCCOc2ccc(C(=O)N[C@H]3C(C)(C)[C@H](Oc4ccc(C#N)c(Cl)c4)C3(C)C)cc2)C(C)(C)C)cc1`, the Emax in data set [2] is greater than 71%. For the same molecule, the AUC(0-t) at 24 h in data set [4] lay in the range of 15600 to 40200 ng·h/mL. The concentration in data set [5] peaked (Cmax) at 1900 ng/mL. Further, in data set [6], the DC50 is no more than 50 nM.

Regarding `Cc1ncsc1-c1ccc(CNC(=O)[C@@H]2C[C@@H](O)CN2C(=O)[C@@H](NC(=O)COCCc2ccc(-c3ccc(C(=O)N[C@H]4C(C)(C)[C@H](Oc5ccc(C#N)c(Cl)c5)C4(C)C)cc3)cc2)C(C)(C)C)cc1`, in data set [2], the Emax was greater than 71%. Besides, the AUC(0-t) at 24 h in data set [4] lay in the range of 15600 to 40200 ng·h/mL. The molecule also came in with a Cmax in data set [5] of 1530 ng/mL. In data set [6], the half-maximal degradation concentration (DC50) is no more than 50 nM.

On to `Cc1ncsc1-c1ccc(CNC(=O)[C@@H]2C[C@@H](O)CN2C(=O)[C@@H](NC(=O)COCCCOCCN2CCC(c3ccc(N4C(=S)N(c5ccc(C#N)c(C(F)(F)F)c5)C(=O)C4(C)C)cc3)CC2)C(C)(C)C)cc1`, for which the maximal response (Emax) in data set [1] is 26 to 50%; in data set [2] it was 51 to 70%. In addition, the AUC(0-t) at 24 h in data set [4] is 15600 to 40200 ng·h/mL. For the same molecule, the DC50 in data set [6] was no more than 501 nM.

Take `Cc1ncoc1-c1ccc(CNC(=O)[C@@H]2C[C@@H](O)CN2C(=O)[C@@H](NC(=O)COCc2ccc(OC(=O)N[C@H]3C(C)(C)[C@H](Oc4ccc(C#N)c(Cl)c4)C3(C)C)cc2)C(C)(C)C)cc1`: the Emax in data set [2] was greater than 71%. The AUC(0-t) at 24 h in data set [4] was in the range of 15600 to 40200 ng·h/mL. Further, the half-maximal degradation concentration (DC50) in data set [6] is no more than 50 nM.
